In patent US9738634B2, “Heterocyclic amide compound and herbicide” (SYNGENTA PARTICIPATIONS AG, priority 2013, dated 2017):

Legend:
Type in all cases: in vivo
Conditions in all cases: treatment dosage 320 g/ha
[1] = tested on: chickweed; assay: Test Example 4: weedkilling efficacy by foliar treatment; N: chickweed
Outline: (§1)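 Seeds are spot-sown into sterilized diluvial soil and covered with about 1.5 cm of soil. After 14 days' greenhouse growth at 25 to 30° C, plants are sprayed on stems and leaves with diluted emulsion at the stated g/ha rate, then scored at 3 weeks.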

[2] = tested on: fig-leafed goosefoot; assay: Test Example 4: weedkilling efficacy by foliar treatment; M: fig-leafed goosefoot
Outline: as §1

[3] = tested on: directly sown rice; assay: Test Example 4: foliar treatment, effect on crop; b: directly sown rice
Outline: as §1

[4] = tested on: green foxtail; assay: Test Example 4: weedkilling efficacy by foliar treatment; E: green foxtail
Outline: as §1

[5] = tested on: barnyard grass; assay: Test Example 4: weedkilling efficacy by foliar treatment; F: barnyard grass
Outline: as §1

[6] = tested on: green foxtail; assay: Test Example 3: weedkilling efficacy through soil treatment; E: green foxtail
Outline: (§2)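 Crop and weed responses were judged three weeks after a uniform surface spray of the water-diluted emulsion at the given g/ha rate. Seeds sat beneath about 1.5 cm of sterilized diluvial soil, and boxes stood in a greenhouse at 25 to 30° C.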

[7] = tested on: rapeseed; assay: Test Example 3: soil treatment, effect on crop; g: rapeseed
Outline: as §2

[8] = tested on: black-grass; assay: Test Example 3: weedkilling efficacy through soil treatment; H: black-grass
Outline: as §2

[9] = tested on: redroot pigweed; assay: Test Example 3: weedkilling efficacy through soil treatment; L: redroot pigweed
Outline: as §2

[10] = tested on: chickweed; assay: Test Example 3: weedkilling efficacy through soil treatment; N: chickweed
Outline: as §2

[11] = tested on: soybean; assay: Test Example 3: soil treatment, effect on crop; d: soybean
Outline: as §2

[12] = tested on: soybean; assay: Test Example 4: foliar treatment, effect on crop; d: soybean
Outline: as §1

[13] = tested on: Indian mallow; assay: Test Example 4: weedkilling efficacy by foliar treatment; K: Indian mallow
Outline: as §1

[14] = tested on: rapeseed; assay: Test Example 4: foliar treatment, effect on crop; g: rapeseed
Outline: as §1

[15] = tested on: catchweed; assay: Test Example 3: weedkilling efficacy through soil treatment; O: catchweed
Outline: as §2

[16] = tested on: common wind-grass; assay: Test Example 3: weedkilling efficacy through soil treatment; J: common wind-grass
Outline: as §2

[17] = tested on: Indian mallow; assay: Test Example 3: weedkilling efficacy through soil treatment; K: Indian mallow
Outline: as §2

[18] = tested on: redroot pigweed; assay: Test Example 4: weedkilling efficacy by foliar treatment; L: redroot pigweed
Outline: as §1

[19] = tested on: crabgrass; assay: Test Example 4: weedkilling efficacy by foliar treatment; D: crabgrass
Outline: as §1

[20] = tested on: wheat; assay: Test Example 3: soil treatment, effect on crop; e: wheat
Outline: as §2

[21] = tested on: directly sown rice; assay: Test Example 3: soil treatment, effect on crop; b: directly sown rice
Outline: as §2

[22] = tested on: beet; assay: Test Example 4: foliar treatment, effect on crop; f: beet
Outline: as §1

[23] = tested on: Italian ryegrass; assay: Test Example 3: weedkilling efficacy through soil treatment; I: Italian ryegrass
Outline: as §2

[24] = tested on: fig-leafed goosefoot; assay: Test Example 3: weedkilling efficacy through soil treatment; M: fig-leafed goosefoot
Outline: as §2

[25] = tested on: common wind-grass; assay: Test Example 4: weedkilling efficacy by foliar treatment; J: common wind-grass
Outline: as §1

[26] = tested on: black-grass; assay: Test Example 4: weedkilling efficacy by foliar treatment; H: black-grass
Outline: as §1

[27] = tested on: wheat; assay: Test Example 4: foliar treatment, effect on crop; e: wheat
Outline: as §1

[28] = tested on: Italian ryegrass; assay: Test Example 4: weedkilling efficacy by foliar treatment; I: Italian ryegrass
Outline: as §1

[29] = tested on: crabgrass; assay: Test Example 3: weedkilling efficacy through soil treatment; D: crabgrass
Outline: as §2

[30] = tested on: wild oat; assay: Test Example 3: weedkilling efficacy through soil treatment; G: wild oat
Outline: as §2

[31] = tested on: birds-eye speedwell; assay: Test Example 3: weedkilling efficacy through soil treatment; p: birds-eye speedwell
Outline: as §2

[32] = tested on: corn; assay: Test Example 3: soil treatment, effect on crop; c: corn
Outline: as §2

[33] = tested on: catchweed; assay: Test Example 4: weedkilling efficacy by foliar treatment; O: catchweed
Outline: as §1

[34] = tested on: corn; assay: Test Example 4: foliar treatment, effect on crop; c: corn
Outline: as §1

[35] = tested on: barnyard grass; assay: Test Example 3: weedkilling efficacy through soil treatment; F: barnyard grass
Outline: as §2

[36] = tested on: wild oat; assay: Test Example 4: weedkilling efficacy by foliar treatment; G: wild oat
Outline: as §1

SMILES: CC1=C(c2cccnc2F)C(=O)N(C(C)(C)C(=O)Nc2cc(Cl)cc(Cl)n2)CO1 [B-2-11]
- N (chickweed) weedkilling efficacy grade [1]: 4 (weed kill ratio 70% or more, less than 90%)
- M (fig-leafed goosefoot) weedkilling efficacy grade [2]: 5 (weed kill ratio 90% or more, (practically complete withering))
- b (directly sown rice) effect on crop grade [3]: 3 (weed kill ratio 40% or more, less than 70%)
- E (green foxtail) weedkilling efficacy grade [4]: 5 (weed kill ratio 90% or more, (practically complete withering))
- F (barnyard grass) weedkilling efficacy grade [5]: 5 (weed kill ratio 90% or more, (practically complete withering))
- E (green foxtail) weedkilling efficacy grade [6]: 5 (weed kill ratio 90% or more, (practically complete withering))
- g (rapeseed) effect on crop grade [7]: 1 (weed kill ratio 5% or more, less than 20%)
- H (black-grass) weedkilling efficacy grade [8]: 5 (weed kill ratio 90% or more, (practically complete withering))
- L (redroot pigweed) weedkilling efficacy grade [9]: 0 (weed kill ratio 5% or less (practically no effect))
- N (chickweed) weedkilling efficacy grade [10]: 4 (weed kill ratio 70% or more, less than 90%)
- d (soybean) effect on crop grade [11]: 0 (weed kill ratio 5% or less (practically no effect))
- d (soybean) effect on crop grade [12]: 4 (weed kill ratio 70% or more, less than 90%)
- K (Indian mallow) weedkilling efficacy grade [13]: 5 (weed kill ratio 90% or more, (practically complete withering))
- g (rapeseed) effect on crop grade [14]: 4 (weed kill ratio 70% or more, less than 90%)
- O (catchweed) weedkilling efficacy grade [15]: 3 (weed kill ratio 40% or more, less than 70%)
- J (common wind-grass) weedkilling efficacy grade [16]: 5 (weed kill ratio 90% or more, (practically complete withering))
- K (Indian mallow) weedkilling efficacy grade [17]: 0 (weed kill ratio 5% or less (practically no effect))
- L (redroot pigweed) weedkilling efficacy grade [18]: 4 (weed kill ratio 70% or more, less than 90%)
- D (crabgrass) weedkilling efficacy grade [19]: 5 (weed kill ratio 90% or more, (practically complete withering))
- e (wheat) effect on crop grade [20]: 0 (weed kill ratio 5% or less (practically no effect))
- b (directly sown rice) effect on crop grade [21]: 3 (weed kill ratio 40% or more, less than 70%)
- f (beet) effect on crop grade [22]: 4 (weed kill ratio 70% or more, less than 90%)
- I (Italian ryegrass) weedkilling efficacy grade [23]: 5 (weed kill ratio 90% or more, (practically complete withering))
- M (fig-leafed goosefoot) weedkilling efficacy grade [24]: 4 (weed kill ratio 70% or more, less than 90%)
- J (common wind-grass) weedkilling efficacy grade [25]: 5 (weed kill ratio 90% or more, (practically complete withering))
- H (black-grass) weedkilling efficacy grade [26]: 5 (weed kill ratio 90% or more, (practically complete withering))
- e (wheat) effect on crop grade [27]: 0 (weed kill ratio 5% or less (practically no effect))
- I (Italian ryegrass) weedkilling efficacy grade [28]: 5 (weed kill ratio 90% or more, (practically complete withering))
- D (crabgrass) weedkilling efficacy grade [29]: 5 (weed kill ratio 90% or more, (practically complete withering))
- G (wild oat) weedkilling efficacy grade [30]: 3 (weed kill ratio 40% or more, less than 70%)
- P (birds-eye speedwell) weedkilling efficacy grade [31]: 5 (weed kill ratio 90% or more, (practically complete withering))
- c (corn) effect on crop grade [32]: 1 (weed kill ratio 5% or more, less than 20%)
- O (catchweed) weedkilling efficacy grade [33]: 4 (weed kill ratio 70% or more, less than 90%)
- c (corn) effect on crop grade [34]: 5 (weed kill ratio 90% or more, (practically complete withering))
- F (barnyard grass) weedkilling efficacy grade [35]: 5 (weed kill ratio 90% or more, (practically complete withering))
- G (wild oat) weedkilling efficacy grade [36]: 4 (weed kill ratio 70% or more, less than 90%)
